Each block holds one compound with its values, some of them ahead of it.
System: 817829-284-R-J1-PDC complex spheroids, viability
Test: Anticancer human tumor 817829-284-R-J1-PDC patient-derived colon adenocarcinoma cell line growth inhibition [GQUAD]
Conditions: for IC50: curve of first compound; for viability, T/C: stronger effect = lower value
Text: DNA G-quadruplex Stabilizer Agents in Combinations in Complex Spheroids
A high-throughput screen of multi-cell type tumor spheroids was designed to identify active combinations of DNA G-quadruplex stabilizer agents and targeted small molecules. Complex spheroids include a stromal component modeled by human endothelial cells (HUVEC) and fibroblasts modeled by human mesenchymal stem cells (MSCs). The concentration ranges selected for each drug and investigational agent were based upon clinically achievable concentrations if the clinical Cmax of the agent was known.
Compounds. The drugs and investigational agents: pidnarulex (CX-5461; NSC782164), APTO-253 (NSC789042), BRACO-19 (NSC847499), peposertib (NSC802822), ceralasertib (NSC780249), elimusertib (NSC800525), camonsertib (NSC841442), AZD-1390 (NSC803789), olaparib (NSC753686), talazoparib (NSC767125), ART-558 (NSC835418), sotorasib (NSC818433), MRTX-1133 (NSC836407), SN-38 (NSC673596), topotecan (NSC609699), etoposide (NSC141540), doxorubicin (NSC123127), gemcitabine (NSC613327), 5-fluorouracil (NSC19893), paclitaxel (NSC125973), vemurafenib (NSC761431), panobinostat (NSC761190), R-306465 (JNJ-16241199; NSC773264), adavosertib (NSC754352), TP-3654 (NSC805149), carboplatin (NSC241240), KSQ-4279 (NSC840948), and staurosporine (NSC755774) were obtained from the National Cancer Institute (NCI) Developmental Therapeutics Program Chemical Repository (34). The FDA-approved anticancer drug set is available from the NCI Developmental Therapeutics Program. […] The stock solutions were prepared in dimethyl sulfoxide (DMSO, Sigma-Aldrich, St. Louis, MO, cat. D2650) at 800-fold the tested concentration and stored at -70 degrees C prior to their use. All drugs and investigational agents were tested over a range starting from a high concentration at or near the clinical Cmax and decreasing in half-log increments. If the clinical Cmax for an agent had not been determined, the highest concentration tested was 10 microM.
2.3 Cell Culture. All cells were maintained in an incubator at 37 degrees C and 5% CO2 with 95% humidity. The PDC lines were cultured according to standard operating procedures established by the NCI PDMR. All PDCs were thawed and cultured in Matrigel-coated flasks prepared with a working solution of 1X Ham's F-12 nutrient mix, without supplementation (Invitrogen, cat. 11765054), 100 U/mL penicillin-streptomycin (Invitrogen, cat. 15140122), and 2.5% Matrigel (Corning Inc., cat. 354248) for the first three passages. The 857933-349-R-J2-PDC line was cultured in 6C/Colon 1B media, which includes advanced DMEM/F-12 (Thermo Fisher Scientific, cat. 12634028), 10 mM HEPES (Thermo Fisher Scientific, cat. 15630080), 1X GlutaMAX supplement (Thermo Fisher Scientific, cat. 35050061), 0.1 mg/mL primocin (InvivoGen, cat. ant-pm-2), 10% defined fetal bovine serum, heat inactivated (HyClone Laboratories Inc., cat. SH30070.03HI), 50% L-WRN conditioned media (ATCC, cat. CRL-3276), 1.25 mM N-Acetyl-L-cysteine (Sigma-Aldrich, cat. A9165), 10 mM nicotinamide (Sigma-Aldrich, cat. N0636), 1X B-27 supplement (Thermo Fisher Scientific, cat. 17504044), 1X N-2 supplement (Thermo Fisher Scientific, cat. 17502048), 10 microM Y-27632 dihydrochloride (Tocris Bioscience, cat. 1254), and 50 ng/mL human EGF recombinant protein (Thermo Fisher Scientific, cat. PHG0311). The 485176-168-R4-J1-PDC line was cultured in Panc media, which includes all 6C/Colon 1B media components plus 100 ng/mL human FGF-10 (Thermo Fisher Scientific, cat. 100-26), 500 nM SB-431542 (Selleckchem, cat. S1067), and gastrin (Tocris, cat. 3006).
[…]

[1] = second compound 0.0316 µM, first compound 0.0316 µM
[2] = second compound 0.0316 µM, first compound 0.1 µM
[3] = second compound 0.0316 µM, first compound 0.316 µM
[4] = second compound 0.0316 µM, first compound 1 µM
[5] = second compound 0.0316 µM, first compound 3.16 µM
[6] = second compound 0.0316 µM, first compound 10 µM
[7] = second compound 0.1 µM, first compound 0.0316 µM
[8] = second compound 0.1 µM, first compound 0.1 µM
[9] = second compound 0.1 µM, first compound 0.316 µM
[10] = second compound 0.1 µM, first compound 1 µM
[11] = second compound 0.1 µM, first compound 3.16 µM
[12] = second compound 0.1 µM, first compound 10 µM
[13] = second compound 0.316 µM, first compound 0.0316 µM
[14] = second compound 0.316 µM, first compound 0.1 µM
[15] = second compound 0.316 µM, first compound 0.316 µM
[16] = second compound 0.316 µM, first compound 1 µM
[17] = second compound 0.316 µM, first compound 3.16 µM
[18] = second compound 0.316 µM, first compound 10 µM
[19] = second compound 1 µM, first compound 0.0316 µM
[20] = second compound 1 µM, first compound 0.1 µM
[21] = second compound 1 µM, first compound 0.316 µM
[22] = second compound 1 µM, first compound 1 µM
[23] = second compound 1 µM, first compound 3.16 µM
[24] = second compound 1 µM, first compound 10 µM
[25] = second compound 3.16 µM, first compound 0.0316 µM
[26] = second compound 3.16 µM, first compound 0.1 µM
[27] = second compound 3.16 µM, first compound 0.316 µM
[28] = second compound 3.16 µM, first compound 1 µM
[29] = second compound 3.16 µM, first compound 3.16 µM
[30] = second compound 3.16 µM, first compound 10 µM
[31] = second compound 10 µM, first compound 0.0316 µM
[32] = second compound 10 µM, first compound 0.1 µM
[33] = second compound 10 µM, first compound 0.316 µM
[34] = second compound 10 µM, first compound 1 µM
[35] = second compound 10 µM, first compound 3.16 µM
[36] = second compound 10 µM, first compound 10 µM
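Also: spheroids exposed to agents for 7 days before readout.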
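For viability, T/C in this document: percent viability relative to DMSO vehicle control taken as 100%.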

IC50 (second compound 0.0316 µM): < 0.0316 µM
IC50 (second compound 0.1 µM): < 0.0316 µM
IC50 (second compound 0.316 µM): < 0.0316 µM
IC50 (second compound 1 µM): < 0.0316 µM
IC50 (second compound 3.16 µM): < 0.0316 µM
IC50 (second compound 10 µM): < 0.0316 µM
SMILES: COc1cccc2c1C(=O)c1c(O)c3c(c(O)c1C2=O)CC(O)(C(=O)CO)CC3OC1CC(N)C(O)C(C)O1 (stereo unspecified) + Cc1cnc(CNC(=O)c2c(=O)c3ccc(N4CCCN(C)CC4)nc3n3c2sc2ccccc23)cn1
viability, T/C [1]: 50.1%
viability, T/C [2]: 28.6%
viability, T/C [3]: 25.7%
viability, T/C [4]: 7.54%
viability, T/C [5]: 0.23%
viability, T/C [6]: 0.16%
viability, T/C [7]: 27.2%
viability, T/C [8]: 26.8%
viability, T/C [9]: 17.2%
viability, T/C [10]: 9.6%
viability, T/C [11]: 0.27%
viability, T/C [12]: 0.19%
viability, T/C [13]: 21.8%
viability, T/C [14]: 24.4%
viability, T/C [15]: 18.2%
viability, T/C [16]: 6.76%
viability, T/C [17]: 0.15%
viability, T/C [18]: 0.22%
viability, T/C [19]: 19.9%
viability, T/C [20]: 21.5%
viability, T/C [21]: 18.9%
viability, T/C [22]: 8.23%
viability, T/C [23]: 0.07%
viability, T/C [24]: 0.08%
viability, T/C [25]: 17.8%
viability, T/C [26]: 16.4%
viability, T/C [27]: 13.9%
viability, T/C [28]: 7.35%
viability, T/C [29]: 0.11%
viability, T/C [30]: 0.11%
viability, T/C [31]: 0.07%
viability, T/C [32]: 0.12%
viability, T/C [33]: 0.16%
viability, T/C [34]: 0.12%
viability, T/C [35]: 0.19%
viability, T/C [36]: 0.18%

IC50 (second compound 0.0316 µM): < 0.0316 µM
IC50 (second compound 0.1 µM): < 0.0316 µM
IC50 (second compound 0.316 µM): < 0.0316 µM
IC50 (second compound 1 µM): < 0.0316 µM
IC50 (second compound 3.16 µM): < 0.0316 µM
IC50 (second compound 10 µM): < 0.0316 µM
SMILES: Nc1ccn(C2OC(CO)C(O)C2(F)F)c(=O)n1 (stereo unspecified) + Cc1cnc(CNC(=O)c2c(=O)c3ccc(N4CCCN(C)CC4)nc3n3c2sc2ccccc23)cn1
viability, T/C [1]: 17.2%
viability, T/C [2]: 7.44%
viability, T/C [3]: 7.25%
viability, T/C [4]: 5.51%
viability, T/C [5]: 5.09%
viability, T/C [6]: 3.11%
viability, T/C [7]: 18%
viability, T/C [8]: 10.7%
viability, T/C [9]: 5.49%
viability, T/C [10]: 7.04%
viability, T/C [11]: 6.51%
viability, T/C [12]: 4.03%
viability, T/C [13]: 15.3%
viability, T/C [14]: 11.4%
viability, T/C [15]: 8.25%
viability, T/C [16]: 7.77%
viability, T/C [17]: 4.4%
viability, T/C [18]: 3.63%
viability, T/C [19]: 15.6%
viability, T/C [20]: 10.3%
viability, T/C [21]: 7.69%
viability, T/C [22]: 5.93%
viability, T/C [23]: 4.41%
viability, T/C [24]: 2.57%
viability, T/C [25]: 15%
viability, T/C [26]: 8.99%
viability, T/C [27]: 5.76%
viability, T/C [28]: 5.67%
viability, T/C [29]: 1%
viability, T/C [30]: 0.14%
viability, T/C [31]: 0.09%
viability, T/C [32]: 0.13%
viability, T/C [33]: 0.12%
viability, T/C [34]: 0.12%
viability, T/C [35]: 0.14%
viability, T/C [36]: 0.15%

IC50 (second compound 0.0316 µM): 0.799 µM
IC50 (second compound 0.1 µM): < 0.0316 µM
IC50 (second compound 0.316 µM): < 0.0316 µM
IC50 (second compound 1 µM): < 0.0316 µM
IC50 (second compound 3.16 µM): < 0.0316 µM
IC50 (second compound 10 µM): < 0.0316 µM
SMILES: O=c1[nH]cc(F)c(=O)[nH]1 + Cc1cnc(CNC(=O)c2c(=O)c3ccc(N4CCCN(C)CC4)nc3n3c2sc2ccccc23)cn1
viability, T/C [1]: 91.4%
viability, T/C [2]: 75.3%
viability, T/C [3]: 77.6%
viability, T/C [4]: 43%
viability, T/C [5]: 37.6%
viability, T/C [6]: 33%
viability, T/C [7]: 29.9%
viability, T/C [8]: 41.6%
viability, T/C [9]: 34.2%
viability, T/C [10]: 35.5%
viability, T/C [11]: 29.1%
viability, T/C [12]: 25.7%
viability, T/C [13]: 25.3%
viability, T/C [14]: 27.6%
viability, T/C [15]: 32.9%
viability, T/C [16]: 26.8%
viability, T/C [17]: 26.7%
viability, T/C [18]: 23.3%
viability, T/C [19]: 22.8%
viability, T/C [20]: 22.4%
viability, T/C [21]: 23.5%
viability, T/C [22]: 24.8%
viability, T/C [23]: 22.9%
viability, T/C [24]: 21.4%
viability, T/C [25]: 21.8%
viability, T/C [26]: 21.2%
viability, T/C [27]: 19.6%
viability, T/C [28]: 19.5%
viability, T/C [29]: 20.1%
viability, T/C [30]: 18%
viability, T/C [31]: 0.08%
viability, T/C [32]: 0.13%
viability, T/C [33]: 0.17%
viability, T/C [34]: 0.14%
viability, T/C [35]: 0.19%
viability, T/C [36]: 0.16%

— PubChem BioAssay AID2060503 (Molecular Pharmacology Branch, DTP, NCI, 2025)
